Test results published in paper PMC8465649, “Semaphorin 3A—Glycosaminoglycans Interaction as Therapeutic Target for Axonal Regeneration” (Pharmaceuticals, 2021).

Columns and labels:
[1] = NMR competition (WaterLOGSY / spin-lock filtered 1H): displacement of FS2/FS3 peptides from heparin agarose resin; format: binding; conditions: WaterLOGSY; 1:1 peptoid/FS2, both 1 mM; pH 7.5
Protocol: NMR competition experiments involved the acquisition of 1D-^1H WaterLOGSY or spin-lock filtered NMR spectra. Thus, FS2 peptide is displaced from heparin agarose resin by CSIC02 (1:1 peptoid/FS2, both 1 mM), but not by CSIC03 (Figure S15). […] We reasoned that if CSIC02 was able to interact with GAG and displace FS2/FS3 basic peptides, it may also interfere with SCTWT–heparin interaction. To investigate if CSIC02 could displace SCTWT from heparin dp14 and to define the SCTWT residues affected, 2D NMR ^1H-^15N HSQC CSP experiments were used. Figure 8a illustrates the chemical shift effects of CSIC02 addition to a sample of SCTWT containing dp14 heparin. […] In Figure 8b, we display the chemical shift perturbation of SCTWT NMR spectra in the presence of dp14 and CSIC02. Thus, as the two CSP plots in Figure 4b and Figure 8b were calculated using as reference SCTWT alone in solution, we can compare them directly. […] Moreover, splitting of signals for some residues (R733, R734, and Q735 in the first GAG-binding region) was observed (Figure 8c). This observation is compatible with the presence of different species in slow chemical exchange in solution, with partial detachment of SCTWT from heparin. The amount of CSIC02 used in these experiments can be rationalized considering that the SCTWT has ca. 12 positive charges at neutral pH (Figure S18), while CSIC02 is tricationic. Since the binding is mediated by ionic polar interactions, a large excess of CSIC02 is needed to counterbalance the SCTWT-dp14 binding.
Next, 1D ^1H T1ρ relaxation filtered and WaterLOGSY NMR experiments were acquired at 25 °C on a 500-MHz spectrometer (Varian Inova; Agilent Technologies, Santa Clara, CA, USA) equipped with an AutoX inverse double-resonance probe with a z-shielded pulsed-field gradient coil. The samples were prepared in a 5-mm Wilmad NMR 528-PP tubes with 10 mM Tris-d11 (for peptide/GAG samples) and 150 mM NaCl dissolved in 90% H2O/10% D2O at pH 7.5. All spectra were obtained with a sweep width of 8 kHz and 16,384 acquired data points. The experiments were recorded using the standard pulse sequence in the (WLOGSY_ES) Chempack library, with excitation sculpting to suppress water resonances. For Water-LOGSY experiments, the first water-selective 180° pulse was 25 ms long. The spectra were acquired with 1200 transients and a spin-lock pulse of 50 ms at 3.7 kHz. To phase Water-LOGSY spectra correctly, it is necessary to use an internal reference compound. In our case, the reference is the residual ethanol absorbed/bonded in heparin-agarose resin (this interaction was previously confirmed with T1ρ filtered experiments), which appears as a positively phased signal. […]

[2] = Concentration-dependent 1H NMR and DOSY NMR (aggregation); format: physicochemical; conditions: DOSY NMR and spectra at increasing concentrations
Source text: As a simple way to characterize the GAG binding behavior, we applied the method previously described by Jiao et al., using the cationic dye known as methylene blue (MB) in a colorimetric competition assay. To compare with our previous results for SICHI, we performed similar experimental design and data analysis, using the charge excess at 50% of MB displacement (CE50) as the parameter to compare the respective binding abilities. The four peptoids rendered very similar CE50 values (CE50 = 1.5–1.8, Figure 6a), reflecting the equivalent charge states. However, CSIC02 reached saturation (complete MB displacement) with a lower number of equivalents, which can be due to its slightly larger molecular size that may cause a more efficient interference with MB binding. Next, we assessed the integrity and solubility of CSIC02 by NMR. To characterize its tendency to aggregate in aqueous solution, NMR spectra at increasing concentrations were acquired which show the same sharp signals under all conditions (Figure S13). […] Direct binding of CSIC02 to GAGs was qualitatively assessed by specific NMR experiments.
Figure S13. Concentration-dependent NMR spectra of CSIC02 and 1H DOSY NMR spectrum of 0.2 mM CSIC02 in presence of 0.5 mM caffeine. […] The spectra were processed with MNova software and the measured diffusion coefficients from DOSY […]

[3] = WaterLOGSY NMR direct binding to heparin agarose; conditions: 1D 1H WaterLOGSY
Protocol: Figure 6 (a) Chemical structures of triprotonated SICHI and CSIC02–04, as the main species in aqueous medium at neutral pH, and relative increase in MB absorbance at 665 nm versus charge ratio after the addition of the peptoids to the preformed MB/heparin complex (4.71 µM Hep repeating units + 9.83 µM MB in 5 mM Tris buffer at pH = 7.5). (b) 1D ^1H WaterLOGSY NMR experiments showing that CSIC02 binds to heparin agarose resin (used as a GAG mimetic).
As a simple way to characterize the GAG binding behavior, we applied the method previously described by Jiao et al., using the cationic dye known as methylene blue (MB) in a colorimetric competition assay. […] Next, we assessed the integrity and solubility of CSIC02 by NMR. […] Direct binding of CSIC02 to GAGs was qualitatively assessed by specific NMR experiments.
Next, 1D ^1H T1ρ relaxation filtered and WaterLOGSY NMR experiments were acquired at 25 °C on a 500-MHz spectrometer (Varian Inova; Agilent Technologies, Santa Clara, CA, USA) equipped with an AutoX inverse double-resonance probe with a z-shielded pulsed-field gradient coil. […] The experiments were recorded using the standard pulse sequence in the (WLOGSY_ES) Chempack library, with excitation sculpting to suppress water resonances. […]

Structure (SMILES): CCN(CC)CCN(CC(=O)N(CCN1CCCC1)CC(=O)N(CCC1CCCN1C)CC(N)=O)C(=O)OCc1ccccc1 (stereo not drawn) [CSIC02]
- displacement of FS2 peptide from heparin agarose resin [1]: displaced
- tendency to aggregate in aqueous solution [2]: absence of higher molecular weight aggregates
- binding to heparin agarose (qualitative) [3]: binding
